# Test results published in PubChem BioAssay (NCI).
#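 Compound exposure: 48 hours, 5 concentrations, 96-well plates. TGI: concentration producing complete growth inhibition.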
# How the values were obtained:
# Experiment in all cases: NCI anticancer screen, dose series, 48 h
# [1] = system: SK-MEL-5 melanoma
# [2] = system: MOLT-4 leukemia
# [3] = system: SK-MEL-2 melanoma
# [4] = system: HT29 colon
# [5] = system: M19-MEL melanoma
# [6] = system: A498 renal
# [7] = system: CCRF-CEM leukemia
# [8] = system: HCT-116 colon
# [9] = system: NCI-H23 lung
# [10] = system: HCT-15 colon
# [11] = system: NCI-H226 lung
# [12] = system: KM12 colon
# [13] = system: K-562 leukemia
# [14] = system: SW-620 colon
# [15] = system: SF-295 CNS
# [16] = system: SN12C renal
# [17] = system: OVCAR-3 ovarian
# [18] = system: RPMI-8226 leukemia
# [19] = system: XF 498 CNS
# [20] = system: IGROV1 ovarian
# [21] = system: OVCAR-4 ovarian
# [22] = system: UO-31 renal
# [23] = system: TK-10 renal
# [24] = system: A549 NSCLC
# [25] = system: NCI-H522 lung
# [26] = system: OVCAR-5 ovarian
# [27] = system: COLO 205 colon
# [28] = system: U251 CNS
# [29] = system: KM20L2 colon
# [30] = system: SNB-19 CNS
# [31] = system: DLD-1 colon
# [32] = system: 786-0 renal
# [33] = system: UACC-257 melanoma
# [34] = system: DMS 114 small cell lung
# [35] = system: EKVX NSCLC
# [36] = system: DMS 273 small cell lung
# [37] = system: M14 melanoma
# [38] = system: UACC-62 melanoma
# [39] = system: SF-539 CNS
# [40] = system: LOX IMVI melanoma
# [41] = system: CAKI-1 renal
# [42] = system: SK-MEL-28 melanoma
# [43] = system: LXFL 529 NSCLC
# [44] = system: HOP-62 NSCLC
# [45] = system: MALME-3M melanoma
# [46] = system: RXF 393 renal
# [47] = system: OVCAR-8 ovarian
# [48] = system: SF-268 CNS
# [49] = system: SK-OV-3 ovarian
# [50] = system: NCI-H460 lung
# [51] = system: SNB-78 CNS
# [52] = system: SNB-75 CNS
# [53] = system: ACHN renal
compound,measurement,setting,value
NC(N)=NS(=O)(=O)c1ccc(NC(=O)c2cccc3cc4ccccc4nc23)cc1,TGI,[1],> 100 µM
same,TGI,[2],> 100 µM
same,TGI,[3],> 100 µM
same,TGI,[4],> 100 µM
same,TGI,[5],> 100 µM
same,TGI,[6],> 100 µM
same,TGI,[7],> 100 µM
same,TGI,[8],> 100 µM
same,TGI,[9],> 100 µM
same,TGI,[10],> 100 µM
same,TGI,[11],> 100 µM
same,TGI,[12],> 100 µM
same,TGI,[13],> 100 µM
same,TGI,[14],> 100 µM
same,TGI,[15],> 100 µM
same,TGI,[16],> 100 µM
same,TGI,[17],> 100 µM
same,TGI,[18],> 100 µM
same,TGI,[19],> 100 µM
same,TGI,[20],> 100 µM
same,TGI,[21],85.7 µM
same,TGI,[22],> 100 µM
same,TGI,[23],> 100 µM
same,TGI,[24],> 100 µM
same,TGI,[25],> 100 µM
same,TGI,[26],> 100 µM
same,TGI,[27],> 100 µM
same,TGI,[28],> 100 µM
same,TGI,[29],> 100 µM
same,TGI,[30],31.8 µM
same,TGI,[31],> 100 µM
same,TGI,[32],> 100 µM
same,TGI,[33],> 100 µM
same,TGI,[34],> 100 µM
same,TGI,[35],> 100 µM
same,TGI,[36],> 100 µM
same,TGI,[37],> 100 µM
same,TGI,[38],> 100 µM
same,TGI,[39],> 100 µM
same,TGI,[40],> 100 µM
same,TGI,[41],> 100 µM
same,TGI,[42],> 100 µM
same,TGI,[43],> 100 µM
same,TGI,[44],> 100 µM
same,TGI,[45],> 100 µM
same,TGI,[46],> 100 µM
same,TGI,[47],> 100 µM
same,TGI,[48],> 100 µM
same,TGI,[49],> 100 µM
same,TGI,[50],> 100 µM
same,TGI,[51],> 100 µM
same,TGI,[52],> 100 µM
same,TGI,[53],> 100 µM
